Several values for one entry are separate records, joined by “and”; a condition that tells them apart may be missing. Equal values may be shown once.
Tests used:
Assay in all cases: radiometric filter-binding kinase assay, Kinase HotSpot
Settings in all cases: compound 0.5 µM; ATP 10 µM
PIM2 (human) = PIM2 (human) (UniProt Q9P1W9)
JAK3 JH1 JH2 (human) = JAK3 JH1 JH2 (human) (UniProt P52333)
EPHA8 (human) = EPHA8 (human) (UniProt P29322)
SYK (human) = SYK (human) (UniProt P43405)
MATK (human) = MATK (human) (UniProt P42679)
NUAK1 (human) = NUAK1 (human) (UniProt O60285)
Chain of NUAK1 (human) (O60285 whole entry, looked up): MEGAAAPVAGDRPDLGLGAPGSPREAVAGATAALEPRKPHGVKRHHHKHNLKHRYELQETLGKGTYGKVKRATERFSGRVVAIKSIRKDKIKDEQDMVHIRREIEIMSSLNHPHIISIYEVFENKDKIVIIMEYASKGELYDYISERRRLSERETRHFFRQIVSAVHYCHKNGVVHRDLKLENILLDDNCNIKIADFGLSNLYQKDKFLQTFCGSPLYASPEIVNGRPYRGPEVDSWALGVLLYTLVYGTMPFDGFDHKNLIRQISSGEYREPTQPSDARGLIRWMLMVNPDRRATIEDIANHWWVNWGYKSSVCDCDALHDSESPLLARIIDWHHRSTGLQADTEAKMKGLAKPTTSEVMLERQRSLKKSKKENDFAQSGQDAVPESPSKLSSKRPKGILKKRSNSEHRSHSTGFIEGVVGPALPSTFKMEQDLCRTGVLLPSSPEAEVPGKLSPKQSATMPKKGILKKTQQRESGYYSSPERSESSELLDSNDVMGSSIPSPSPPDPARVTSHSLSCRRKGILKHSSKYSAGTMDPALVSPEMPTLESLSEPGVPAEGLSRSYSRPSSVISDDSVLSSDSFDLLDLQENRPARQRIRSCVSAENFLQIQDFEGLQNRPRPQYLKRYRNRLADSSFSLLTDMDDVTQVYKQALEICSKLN

ADRBK2 (human) = ADRBK2 (human) (UniProt P35626)
CDK9 CCNT1 (human) = CDK9 CCNT1 (human) (UniProt P50750+O60563)
TYRO3 (human) = TYRO3 (human) (UniProt Q06418)
CHEK2 (human) = CHEK2 (human) (UniProt O96017)
SGK3 (human) = SGK3 (human) (UniProt Q96BR1)
DAPK1 (human) = DAPK1 (human) (UniProt P53355)
DMPK (human) = DMPK (human) (UniProt Q09013)
CSK (human) = CSK (human) (UniProt P41240)
LRRK2 (human) = LRRK2 (human) (UniProt Q5S007)
NEK6 (human) = NEK6 (human) (UniProt Q9HC98)
AURKB (human) = AURKB (human) (UniProt Q96GD4)
PAK7 (human) = PAK7 (human) (UniProt Q9P286)
STK3 (human) = STK3 (human) (UniProt Q13188)
YES1 (human) = YES1 (human) (UniProt P07947)
Chain of YES1 (human) (P07947 whole entry, looked up): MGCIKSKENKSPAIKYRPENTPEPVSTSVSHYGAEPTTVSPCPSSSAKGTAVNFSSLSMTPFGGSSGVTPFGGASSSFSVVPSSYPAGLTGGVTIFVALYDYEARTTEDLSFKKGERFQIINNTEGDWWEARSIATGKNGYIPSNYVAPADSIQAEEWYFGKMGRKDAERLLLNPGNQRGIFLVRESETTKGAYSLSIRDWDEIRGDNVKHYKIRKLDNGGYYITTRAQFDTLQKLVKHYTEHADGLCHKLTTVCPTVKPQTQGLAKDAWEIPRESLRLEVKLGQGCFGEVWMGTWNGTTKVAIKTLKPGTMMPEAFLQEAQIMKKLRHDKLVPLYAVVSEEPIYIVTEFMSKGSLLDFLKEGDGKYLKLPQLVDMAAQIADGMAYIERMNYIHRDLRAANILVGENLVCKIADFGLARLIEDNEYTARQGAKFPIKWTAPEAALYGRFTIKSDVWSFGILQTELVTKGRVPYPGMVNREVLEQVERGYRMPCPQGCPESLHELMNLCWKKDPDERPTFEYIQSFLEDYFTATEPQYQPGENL

PHKG2 (human) = PHKG2 (human) (UniProt P15735)
Chain of PHKG2 (human) (P15735 whole entry, looked up): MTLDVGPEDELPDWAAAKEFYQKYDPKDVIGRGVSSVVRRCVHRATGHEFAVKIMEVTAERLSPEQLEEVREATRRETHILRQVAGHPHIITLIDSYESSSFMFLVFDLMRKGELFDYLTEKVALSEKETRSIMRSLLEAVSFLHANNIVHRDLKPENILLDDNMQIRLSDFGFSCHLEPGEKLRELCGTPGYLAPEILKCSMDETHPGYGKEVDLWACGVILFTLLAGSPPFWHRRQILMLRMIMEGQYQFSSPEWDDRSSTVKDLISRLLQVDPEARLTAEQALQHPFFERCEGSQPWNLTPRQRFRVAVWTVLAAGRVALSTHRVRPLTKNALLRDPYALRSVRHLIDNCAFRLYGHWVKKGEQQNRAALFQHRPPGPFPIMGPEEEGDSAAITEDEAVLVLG

PRKCH (human) = PRKCH (human) (UniProt P24723)
EPHA7 (human) = EPHA7 (human) (UniProt Q15375)
Chain of EPHA7 (human) (Q15375 whole entry, looked up): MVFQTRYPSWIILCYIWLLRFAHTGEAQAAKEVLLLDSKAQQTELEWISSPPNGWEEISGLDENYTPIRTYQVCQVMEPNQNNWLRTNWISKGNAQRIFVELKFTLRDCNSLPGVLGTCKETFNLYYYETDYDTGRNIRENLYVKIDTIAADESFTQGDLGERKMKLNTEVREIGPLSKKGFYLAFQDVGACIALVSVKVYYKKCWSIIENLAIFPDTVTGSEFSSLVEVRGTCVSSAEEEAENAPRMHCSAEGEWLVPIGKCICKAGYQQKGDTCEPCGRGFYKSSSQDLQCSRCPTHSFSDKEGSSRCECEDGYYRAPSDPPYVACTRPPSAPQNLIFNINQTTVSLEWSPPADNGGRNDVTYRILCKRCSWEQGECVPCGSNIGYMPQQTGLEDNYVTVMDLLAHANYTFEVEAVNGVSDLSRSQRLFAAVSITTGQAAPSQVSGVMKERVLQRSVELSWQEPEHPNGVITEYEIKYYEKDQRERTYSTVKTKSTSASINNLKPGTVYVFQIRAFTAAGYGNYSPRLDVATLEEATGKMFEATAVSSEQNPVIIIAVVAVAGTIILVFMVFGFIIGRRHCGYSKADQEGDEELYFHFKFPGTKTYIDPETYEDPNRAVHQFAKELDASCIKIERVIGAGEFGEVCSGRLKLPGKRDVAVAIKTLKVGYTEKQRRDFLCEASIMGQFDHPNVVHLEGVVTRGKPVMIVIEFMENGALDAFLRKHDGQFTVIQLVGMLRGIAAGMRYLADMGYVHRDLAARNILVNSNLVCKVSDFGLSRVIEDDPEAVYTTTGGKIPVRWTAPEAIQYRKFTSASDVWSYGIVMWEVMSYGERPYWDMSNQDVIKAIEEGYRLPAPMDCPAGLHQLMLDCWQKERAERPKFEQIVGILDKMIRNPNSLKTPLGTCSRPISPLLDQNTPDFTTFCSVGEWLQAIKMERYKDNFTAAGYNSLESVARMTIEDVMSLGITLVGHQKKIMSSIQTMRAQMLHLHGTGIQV

TNK2 (human) = TNK2 (human) (UniProt Q07912)
Chain of TNK2 (human) (Q07912 whole entry, looked up): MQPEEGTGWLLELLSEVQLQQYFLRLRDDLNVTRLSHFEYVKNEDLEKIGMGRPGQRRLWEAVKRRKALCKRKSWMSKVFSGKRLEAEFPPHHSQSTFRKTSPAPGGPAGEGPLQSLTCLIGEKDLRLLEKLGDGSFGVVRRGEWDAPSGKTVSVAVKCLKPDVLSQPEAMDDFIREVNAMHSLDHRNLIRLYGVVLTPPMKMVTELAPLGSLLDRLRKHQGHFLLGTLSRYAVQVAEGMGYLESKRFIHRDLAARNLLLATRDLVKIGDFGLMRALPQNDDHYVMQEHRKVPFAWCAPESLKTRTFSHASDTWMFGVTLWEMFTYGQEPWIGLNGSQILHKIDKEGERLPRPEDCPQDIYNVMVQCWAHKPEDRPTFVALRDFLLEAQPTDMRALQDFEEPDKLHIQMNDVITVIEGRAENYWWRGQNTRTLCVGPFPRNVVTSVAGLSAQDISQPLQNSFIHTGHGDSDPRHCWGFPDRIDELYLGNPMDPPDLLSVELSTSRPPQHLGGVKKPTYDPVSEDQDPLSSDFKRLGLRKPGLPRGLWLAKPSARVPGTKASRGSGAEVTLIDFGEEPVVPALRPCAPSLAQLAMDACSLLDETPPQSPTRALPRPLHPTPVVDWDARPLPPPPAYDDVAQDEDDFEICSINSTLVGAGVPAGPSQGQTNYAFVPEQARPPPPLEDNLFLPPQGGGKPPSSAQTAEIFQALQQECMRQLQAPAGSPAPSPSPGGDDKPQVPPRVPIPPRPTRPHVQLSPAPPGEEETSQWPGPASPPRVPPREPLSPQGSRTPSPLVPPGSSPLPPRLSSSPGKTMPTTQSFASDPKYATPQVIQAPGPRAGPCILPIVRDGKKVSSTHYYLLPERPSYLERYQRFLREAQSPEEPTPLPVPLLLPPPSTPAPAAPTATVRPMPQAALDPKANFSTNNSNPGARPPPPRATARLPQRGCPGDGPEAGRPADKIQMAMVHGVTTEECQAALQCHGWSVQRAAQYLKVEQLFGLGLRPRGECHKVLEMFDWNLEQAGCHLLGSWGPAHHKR

KIT (human) = KIT (human) (UniProt P10721)
STK39 (human) = STK39 (human) (UniProt Q9UEW8)
INSR (human) = INSR (human) (UniProt P06213)
CDK1 CCNA2 (human) = CDK1 CCNA2 (human) (UniProt P06493+P20248)
MAP4K2 (human) = MAP4K2 (human) (UniProt Q12851)
MAP3K5 (human) = MAP3K5 (human) (UniProt Q99683)
BMX (human) = BMX (human) (UniProt P51813)
HIPK3 (human) = HIPK3 (human) (UniProt Q9H422)
MELK (human) = MELK (human) (UniProt Q14680)
GRK5 (human) = GRK5 (human) (UniProt P34947)
[1] = molecular target: JAK1 JH1 catalytic (human) (UniProt P23458)
EPHA4 (human) = EPHA4 (human) (UniProt P54764)
PRKG1 (human) = PRKG1 (human) (UniProt Q13976)
MAPKAPK2 (human) = MAPKAPK2 (human) (UniProt P49137)
STK24 (human) = STK24 (human) (UniProt Q9Y6E0)
PRKD1 (human) = PRKD1 (human) (UniProt Q15139)
CDK9 CCNK (human) = CDK9 CCNK (human) (UniProt O75909+P50750)
NTRK3 (human) = NTRK3 (human) (UniProt Q16288)

Chain of JAK3 JH1 JH2 (human) (P52333 whole entry, looked up): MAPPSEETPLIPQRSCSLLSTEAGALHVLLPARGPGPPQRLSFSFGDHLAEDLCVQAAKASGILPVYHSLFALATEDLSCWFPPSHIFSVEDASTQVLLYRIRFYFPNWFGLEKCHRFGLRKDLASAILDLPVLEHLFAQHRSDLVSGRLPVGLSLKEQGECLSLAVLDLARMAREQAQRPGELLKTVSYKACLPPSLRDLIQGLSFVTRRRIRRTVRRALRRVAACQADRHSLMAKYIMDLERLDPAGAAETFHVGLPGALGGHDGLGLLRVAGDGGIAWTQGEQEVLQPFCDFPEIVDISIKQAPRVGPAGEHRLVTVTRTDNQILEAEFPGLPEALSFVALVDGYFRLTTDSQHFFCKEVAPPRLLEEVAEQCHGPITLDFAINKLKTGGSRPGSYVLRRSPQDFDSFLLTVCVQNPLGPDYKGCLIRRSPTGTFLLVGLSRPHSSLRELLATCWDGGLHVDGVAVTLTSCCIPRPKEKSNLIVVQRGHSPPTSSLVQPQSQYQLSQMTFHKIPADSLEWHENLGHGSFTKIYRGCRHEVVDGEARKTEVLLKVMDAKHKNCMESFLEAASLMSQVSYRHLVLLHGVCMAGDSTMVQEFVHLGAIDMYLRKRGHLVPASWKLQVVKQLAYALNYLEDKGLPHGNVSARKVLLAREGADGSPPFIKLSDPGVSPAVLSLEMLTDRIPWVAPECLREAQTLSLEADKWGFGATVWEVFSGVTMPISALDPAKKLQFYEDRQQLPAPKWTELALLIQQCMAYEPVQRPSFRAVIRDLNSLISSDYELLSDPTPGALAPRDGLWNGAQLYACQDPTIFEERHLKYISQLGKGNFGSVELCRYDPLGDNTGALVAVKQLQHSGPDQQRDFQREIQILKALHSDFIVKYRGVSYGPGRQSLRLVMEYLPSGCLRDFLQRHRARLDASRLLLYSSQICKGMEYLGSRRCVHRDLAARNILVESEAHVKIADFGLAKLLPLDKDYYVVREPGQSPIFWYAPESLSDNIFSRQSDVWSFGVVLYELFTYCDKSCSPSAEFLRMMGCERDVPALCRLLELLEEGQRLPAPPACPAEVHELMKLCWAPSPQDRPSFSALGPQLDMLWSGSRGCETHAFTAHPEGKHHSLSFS

For Cc1nc(-c2ccccc2)c(-c2ccncc2)o1, the residual activity (PIM2 (human)) was 110%, the residual activity (JAK3 JH1 JH2 (human)) was 90.7% and the residual activity (EPHA8 (human)) was 78.8%. It also gave a residual activity (SYK (human)) of 99.1%, a residual activity (MATK (human)) of 90.3% and a residual activity (NUAK1 (human)) of 100%. It also gave a residual activity (ADRBK2 (human)) of 101%, a residual activity (CDK9 CCNT1 (human)) of 84.6% and a residual activity (TYRO3 (human)) of 109%. It also gave a residual activity (CHEK2 (human)) of 96.6%, a residual activity (SGK3 (human)) of 96.4% and a residual activity (DAPK1 (human)) of 124%. It also gave a residual activity (DMPK (human)) of 103%, a residual activity (CSK (human)) of 107% and a residual activity (LRRK2 (human)) of 96.8%. It also gave a residual activity (NEK6 (human)) of 94.4%, a residual activity (AURKB (human)) of 97.3% and a residual activity (PAK7 (human)) of 96.1%. The residual activity (STK3 (human)) was 104%, the residual activity (YES1 (human)) was 101% and the residual activity (PHKG2 (human)) was 97.6%. The residual activity (PRKCH (human)) was 88.1%, the residual activity (EPHA7 (human)) was 91.5% and the residual activity (TNK2 (human)) was 97.7%. It also gave a residual activity (KIT (human)) of 93.7%, a residual activity (STK39 (human)) of 97.1% and a residual activity (INSR (human)) of 85.6%. The residual activity (CDK1 CCNA2 (human)) was 94.7%, the residual activity (MAP4K2 (human)) was 106% and the residual activity (MAP3K5 (human)) was 102%. It also gave a residual activity (BMX (human)) of 102%, a residual activity (HIPK3 (human)) of 107% and a residual activity (MELK (human)) of 105%. The residual activity (GRK5 (human)) was 104%, the residual activity [1] was 103% and the residual activity (EPHA4 (human)) was 112%. The residual activity (PRKG1 (human)) was 90.5% and 96.1%, the residual activity (MAPKAPK2 (human)) was 101% and the residual activity (STK24 (human)) was 96.7%. For the same compound, the residual activity (PRKD1 (human)) was 95.6%, the residual activity (CDK9 CCNK (human)) was 101% and the residual activity (NTRK3 (human)) was 105%.
Compound Cn1c2ccccc2c2c3c(c4c5ccccc5n(CCC#N)c4c21)CNC3=O has a residual activity (PIM2 (human)) of 101%, a residual activity (JAK3 JH1 JH2 (human)) of 2.44% and a residual activity (EPHA8 (human)) of 91.7%. For the same compound, the residual activity (SYK (human)) was 14.6%, the residual activity (MATK (human)) was 100% and the residual activity (NUAK1 (human)) was 3.86%. It also gave a residual activity (ADRBK2 (human)) of 106%, a residual activity (CDK9 CCNT1 (human)) of 46.8% and a residual activity (TYRO3 (human)) of 85.6%. It also gave a residual activity (CHEK2 (human)) of 50.2%, a residual activity (SGK3 (human)) of 112% and a residual activity (DAPK1 (human)) of 102%. It also gave a residual activity (DMPK (human)) of 101%, a residual activity (CSK (human)) of 81% and a residual activity (LRRK2 (human)) of 30.5%. For the same compound, the residual activity (NEK6 (human)) was 103%, the residual activity (AURKB (human)) was 33.1% and the residual activity (PAK7 (human)) was 37.1%. The residual activity (STK3 (human)) was 3.07%, the residual activity (YES1 (human)) was 68.7% and the residual activity (PHKG2 (human)) was 8.4%. For the same compound, the residual activity (PRKCH (human)) was 35.3%, the residual activity (EPHA7 (human)) was 62.6% and the residual activity (TNK2 (human)) was 2.78%. It also gave a residual activity (KIT (human)) of 96.9%, a residual activity (STK39 (human)) of 96.7% and a residual activity (INSR (human)) of 89.3%. It also gave a residual activity (CDK1 CCNA2 (human)) of 55.5%, a residual activity (MAP4K2 (human)) of 5.68% and a residual activity (MAP3K5 (human)) of 49.8%. For the same compound, the residual activity (BMX (human)) was 13.7%, the residual activity (HIPK3 (human)) was 29.8% and the residual activity (MELK (human)) was 21.1%. For the same compound, the residual activity (GRK5 (human)) was 89.1%, the residual activity [1] was 20.2% and the residual activity (EPHA4 (human)) was 90.4%. For the same compound, the residual activity (PRKG1 (human)) was 80.2% and 84.3%, the residual activity (MAPKAPK2 (human)) was 109% and the residual activity (STK24 (human)) was 62.8%. For the same compound, the residual activity (PRKD1 (human)) was 17.3%, the residual activity (CDK9 CCNK (human)) was 55.2% and the residual activity (NTRK3 (human)) was 0.198%.
O=C(c1cc2cc(O)ccc2[nH]1)c1cc2cc(O)ccc2[nH]1 gave a residual activity (PIM2 (human)) of 108%, a residual activity (JAK3 JH1 JH2 (human)) of 94.5% and a residual activity (EPHA8 (human)) of 92.9%. It also gave a residual activity (SYK (human)) of 72%, a residual activity (MATK (human)) of 93.3% and a residual activity (NUAK1 (human)) of 69.2%. For the same compound, the residual activity (ADRBK2 (human)) was 102%, the residual activity (CDK9 CCNT1 (human)) was 76.6% and the residual activity (TYRO3 (human)) was 76.4%. The residual activity (CHEK2 (human)) was 80.1%, the residual activity (SGK3 (human)) was 113% and the residual activity (DAPK1 (human)) was 101%. The residual activity (DMPK (human)) was 96.9%, the residual activity (CSK (human)) was 106% and the residual activity (LRRK2 (human)) was 87.2%. The residual activity (NEK6 (human)) was 99.6%, the residual activity (AURKB (human)) was 24.2% and the residual activity (PAK7 (human)) was 85.3%. The residual activity (STK3 (human)) was 41.4%, the residual activity (YES1 (human)) was 18.8% and the residual activity (PHKG2 (human)) was 105%. For the same compound, the residual activity (PRKCH (human)) was 76.3%, the residual activity (EPHA7 (human)) was 101% and the residual activity (TNK2 (human)) was 90.6%. It also gave a residual activity (KIT (human)) of 45.6%, a residual activity (STK39 (human)) of 97.6% and a residual activity (INSR (human)) of 93.8%. For the same compound, the residual activity (CDK1 CCNA2 (human)) was 88.2%, the residual activity (MAP4K2 (human)) was 67.1% and the residual activity (MAP3K5 (human)) was 89.6%. It also gave a residual activity (BMX (human)) of 80.6%, a residual activity (HIPK3 (human)) of 97.3% and a residual activity (MELK (human)) of 49.2%. For the same compound, the residual activity (GRK5 (human)) was 104%, the residual activity [1] was 98.7% and the residual activity (EPHA4 (human)) was 109%. For the same compound, the residual activity (PRKG1 (human)) was 84.3% and 90%, the residual activity (MAPKAPK2 (human)) was 103% and the residual activity (STK24 (human)) was 70.4%. It also gave a residual activity (PRKD1 (human)) of 58.5%, a residual activity (CDK9 CCNK (human)) of 49.5% and a residual activity (NTRK3 (human)) of 13.4%.
